Laboratory results as given in US8030347B2, “Cylopenta[b]benzofuran derivatives and the utilization thereof” (Bayer HealthCare AG, priority 2004, dated 2011).

How the values were obtained:
[1] = tested on: Interleukin-8 (IL-8) release from human endothelial cells; assay: Inhibition of interleukin-8 (IL-8) release from human endothelial cells (HUVEC), IL-1β induced, ELISA; assay type: cell-based; settings: IL-1β 10 ng/ml, 6 h, IL-8 by ELISA, read-out: IC50 (50% inhibition of IL-8 release relative to the maximum effect)
From the text: 1.a) Inhibition of Interleukin-8 (IL-8) Release from Human Endothelial Cells
The expression of the human IL-8 gene is controlled by a diversity of regulatory and enhancer elements which are located above the promoter region of the gene. These elements comprise binding sites for transcription factors, and efficient transcription of the IL-8 gene is possible only through the interaction thereof with their DNA binding sites. The activity of the corresponding transcription factors can be induced by various stimuli (e.g. interleukin-1β, tumor necrosis factor-α) and can be modulated by various signal transduction pathways [H. Holtmann et al., Mol. Cell. Biol. 19, 6742-6753 (1999)].
For maximum expression of IL-8, the activity of two different transcription factors is essential: NF-κB and AP-1 [Y.-H. Chang et al., Exp. Cell Res. 278, 166-174 (2000)]. Cytokine-induced IL-8 synthesis can therefore be employed as test system for identifying and characterizing test substances which inhibit directly or indirectly the binding of NF-κB and AP-1 to their DNA binding sites.
Human umbilical cord endothelial cells (HUVEC) were purchased from CellSystems (St. Katharinen, Germany) and cultured in accordance with the supplier's recommendation in EGM-2 medium including growth additions (CellSystems, St. Katharinen, Germany) in 165 cm^2 tissue culture bottles. After the cell lawn has reached 60-80% confluence, the cells are detached from the base of the bottle by trypsin treatment, mechanically dissociated and seeded in a cell density of 5000 cells/well in 96-well microtiter plates (Corning, Wiesbaden, Germany). After 3 days, the culture medium is completely replaced by 170 μl of fresh medium per well. The cells are employed for the experiments on the following day.
To determine the inhibitory effect of the substances according to the invention on IL-8 release, they are firstly dissolved in a concentration ten times higher than the desired final concentration in the test in medium which comprises 1% DMSO. Subsequently, 20 μl of the substance solution are added per well. The formation and release of IL-8 is then induced by adding interleukin-1β (IL-1β, final concentration 10 ng/ml; Biosource GmbH, Solingen, Germany), and the cells are incubated in a CO2 incubator at 37° C. for 6 h. Thereafter, 150 μl of the cell supernatant are removed and frozen at −20° C. until the IL-8 content is measured by ELISA (Biosource GmbH, Solingen, Germany). To carry out the ELISA, the samples are thawed and are diluted 1:10, and the test is carried out in accordance with the manufacturer's instructions. The inhibitory effect of the compounds according to the invention on IL-8 release is ascertained by comparison with vehicle-treated cells.

[2] = Metabolic stability: in vitro incubation with liver microsomes; assay type: in vitro ADME; settings: Mouse liver microsomes; for CL: calculated from half-life in the incubation mixture; for Fmax: maximum bioavailability calculated from half-life in the incubation mixture
Experimental: In Vitro Incubation with Liver Microsomes:
The hepatic microsomal stability is determined by incubating the substances according to the invention with liver microsomes from various species. The incubation concentration of the substances is kept as low as possible (preferably <1 μM), as is the concentration of the microsomal proteins in the test mixture (preferably 0.2 mg of microsomal protein per ml of incubation mixture). This procedure makes it possible to operate in the linear region of the Michaelis-Menten kinetics for most compounds. A sample is taken from the incubation mixture at various times (seven times in total) to determine the remaining substance concentration. The clearance (CL) and the maximum bioavailability (Fmax) of the test substance is calculated for the respective species from the half-life of the substance in the incubation mixture.
The experiments are carried out as described in detail in J. B. Houston and D. J. Carlile [Drug Metab. Rev. 29, 891-922 (1997)].

H460 cells = assay: In vitro proliferation of tumor cells (CellTiter-Glo); assay type: cell-based; settings: NCI-H460; H460 human lung carcinoma cells, 24 h after addition of substance
From the text: Various types of cancer are characterized by uncontrolled, excessive proliferation of various cell types, leading to the development of metastases and tumors. The possible use of the substances according to the invention for the treatment of hyperproliferative disorders can be investigated by their activity on the cell division rate of tumor cells in vitro. The indicator between antiproliferative effect in vitro and clinical antitumor effect is well established. The therapeutic utilizability of, for example, Taxol [Silvestrini et al., Stem Cells 11, 528-535 (1993)], Taxotere [Bissery et al., Anti Cancer Drugs 6, 339 (1995)] or topoisomerase inhibitors [Edelman et al., Cancer Chemother.
The tumor cell lines such as, for example, MDA-MB-231 cells (human breast adenocarcinoma cells), H460 cells (human lung carcinoma cells) or HCT-15 cells (human colon adenocarcinoma cells) are expanded in appropriate growth media (Sigma, Taufkirchen, Germany) recommended by the supplier (e.g. LGC Promochem, Wesel, Germany). One day before adding the compounds according to the invention, the cells are distributed in a density of 3000 cells/well in 100 μl of growth medium on black 96-well microtiter plates with clear base. On the day of addition of test substance, one microtiter plate for each tumor cell line is used to determine the initial cell count present in the wells. The substances according to the invention, diluted in growth medium and DMSO, are added to the related plates. The test substances are usually added in various concentrations starting with 10 μM final concentration in the assay. The DMSO concentration in the assay is 0.1%. Twenty-four hours after addition of the substance, the cell counts in each well are determined using the CellTiter-Glo® Luminescent Cell Viability-Tests (Promega GmbH, Mannheim, Germany). The test is carried out in accordance with the manufacturer's instructions and evaluated using a luminometer. To ascertain the antiproliferative activity of the compounds according to the invention, the cell counts determined before addition of substance in related plates are subtracted, and the percentage difference of the changes in the cell counts between substance-treated and vehicle-treated cells is determined. The relative activity of the different test substances is determined by a comparison of the concentrations which bring about 50% of their maximum effect (IC50).

IC50 [1]	CL [2]	Fmax [2]	SMILES	IC50 (H460 cells)
166 nM	<45 mL/min/kg	>50%	CCOc1cc(OCC)c2c(c1)O[C@@]1(c3ccc(Cl)cc3)[C@H](c3ccccc3)C[C@@H](N)[C@@]21O (racemic) [Example 15, (1R*,3S*,3aR*,8bS*)-1-Amino-3a-(4-chlorophenyl)-6,8-diethoxy-8b-hydroxy-3-phenyl-2,3,3a,8b-tetrahydrocyclopenta[b]benzofuran]	
112 nM	<45 mL/min/kg	>50%	CN(C)CCOc1ccc2c(c1)O[C@@]1(c3ccc(Cl)cc3)[C@H](c3ccccc3)C[C@H](O)[C@@]21O (racemic) [Example 32, (1S*,3S*,3aR*,8bS*)-3a-(4-Chlorophenyl)-6-(2-dimethylaminoethoxy)-3-phenyl-2,3,3a,8b-tetrahydrocyclopenta[b]benzofuran-1,8b-(1H)-diol]	0.5 nM
214 nM	<45 mL/min/kg	>50%	O[C@H]1C[C@@H](c2ccccc2)[C@]2(c3ccc(Cl)cc3)Oc3cccc(OCCN4CCCC4)c3[C@]12O (racemic) [Example 48, (1S*,3S*,3aR*,8bS*)-3a-(4-Chlorophenyl)-3-phenyl-8-(2-pyrrolidin-1-ylethoxy)-2,3,3a,8b-tetrahydrocyclopenta[b]benzofuran-1,8b-(1H)-diol]	47.9 nM
170 nM	<45 mL/min/kg	>50%	CCOc1cc(OCC)c2c(c1)O[C@@]1(c3ccc(-c4ccsc4)cc3)[C@H](c3ccccc3)C[C@@H](O)[C@@]21O (relative stereo) [Example 3, (1R*,3S*,3aR*,8bS*)-6,8-Diethoxy-3-phenyl-2,3,3a,8b-tetrahydro-3a-(4-thiophen-3-ylphenyl)-cyclopenta[b]benzofuran-1,8b-(1H)-diol]	
20 nM	<45 mL/min/kg	>50%	COCCOc1cc(OCCOC)c2c(c1)O[C@@]1(c3ccc(Br)cc3)[C@H](c3ccccc3)C[C@@H](O)[C@@]21O (relative stereo) [Example 18, (1R*,3S*,3aR*,8bS*)-6,8-Bis(2-methoxyethoxy)-3a-(4-bromophenyl)-3-phenyl-2,3,3a,8b-tetrahydrocyclopenta[b]benzofuran-1,8b-(1H)-diol]	
			CN(C)CCOc1cc(OCCN(C)C)c2c(c1)O[C@@]1(c3ccc(Cl)cc3)[C@H](c3ccccc3)C[C@@H](O)[C@@]21O (relative stereo) [Example 21, (1R*,3S*,3aR*,8bS*)-6,8-Bis(2-dimethylaminoethoxy)-3a-(4-chlorophenyl)-3-phenyl-2,3,3a,8b-tetrahydrocyclopenta[b]benzofuran-1,8b-(1H)-diol]	1.5 nM
			CN(C)CCOc1cccc2c1[C@]1(O)[C@@H](O)C[C@@H](c3ccccc3)[C@]1(c1ccc(Cl)cc1)O2 (relative stereo) [Example 49, (1S*,3S*,3aR*,8bS*)-3a-(4-Chlorophenyl)-8-(2-dimethylaminoethoxy)-3-phenyl-2,3,3a,8b-tetrahydrocyclopenta[b]benzofuran-1,8b-(1H)-diol]	29.7 nM

SMILES	IC50 [1]	CL [2]	Fmax [2]	IC50 (H460 cells)
CCOc1cc(OCC)c2c(c1)O[C@@]1(c3ccc(Br)cc3)[C@H](c3ccccc3)[C@@H](C(=O)N(C)C)C(=O)[C@@]21O (relative stereo) [Example 12, (2R*,3S*,3aR*,8bR*)-3a-(4-Bromophenyl)-6,8-diethoxy-2-dimethylcarbamid-8b-hydroxy-3-phenyl-2,3,3a,8b-tetrahydrocyclopenta[b]benzofuran-1-one]	466 nM	49.5 mL/min/kg	45.1%	
CN(C)CCOc1cc(OCCN(C)C)c2c(c1)O[C@@]1(c3ccc(Br)cc3)[C@H](c3ccccc3)C[C@H](O)[C@@]21O (relative stereo) [Example 22, (1S*,3S*,3aR*,8bS*)-6,8-Bis(2-dimethylaminoethoxy)-3a-(4-bromophenyl)-3-phenyl-2,3,3a,8b-tetrahydrocyclopenta[b]benzofuran-1,8b-(1H)-diol]	90 nM	<45 mL/min/kg	>50%	
CCOc1ccc2c(c1)O[C@@]1(c3ccc(Cl)cc3)[C@H](c3ccccc3)C[C@H](O)[C@@]21O (relative stereo) [Example 23, (1S*,3S*,3aR*,8bS*)-3a-(4-Chlorophenyl)-6-ethoxy-3-phenyl-2,3,3a,8b-tetrahydrocyclopenta[b]-benzofuran-1,8b-(1H)-diol]	202 nM			99.7 nM
